In US9505749B2, “Quinazolinone compounds and derivatives thereof” (AMGEN INC., priority 2012, dated 2016):
Where two headings read alike, the source gives them in different places.

Legend:
[1] = biological target: 6×HIS-tankyrase1 (1091-1325) (Homo sapiens (Human), UniProt O95271); assay: Tankyrase 1 biochemical assay (AlphaLisa, PARsylation); settings: 400 nM NAD, 60 minutes at RT; read-out: TNKS1 IC50
[2] = biological target: 6×HIS-tankyrase 2 (946-1162) (Homo sapiens (Human), UniProt Q9H2K2); assay: Tankyrase 2 biochemical assay (AlphaLisa, PARsylation); settings: 250 nM NAD; read-out: TNKS2 IC50
Chain of 6×HIS-tankyrase 2 (946-1162) (Q9H2K2 946-1162): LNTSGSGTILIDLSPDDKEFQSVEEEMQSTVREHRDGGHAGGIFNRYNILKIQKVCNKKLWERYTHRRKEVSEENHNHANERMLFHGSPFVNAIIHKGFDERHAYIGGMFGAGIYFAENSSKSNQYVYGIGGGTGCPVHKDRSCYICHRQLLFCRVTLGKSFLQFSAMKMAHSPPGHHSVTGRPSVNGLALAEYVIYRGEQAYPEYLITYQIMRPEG

[3] = tested on: Axin2 accumulation in SW480 cells; assay: Axin2 384 immunofluorescence assay; assay type: cell-based; settings: Homo sapiens, read-out: Axin2 384 IF EC50
PARP1 = PARP1 (Homo sapiens (Human), UniProt P09874); assay: PARP1 biochemical assay (Trevigen kit)
Chain of PARP1 (P09874 whole entry): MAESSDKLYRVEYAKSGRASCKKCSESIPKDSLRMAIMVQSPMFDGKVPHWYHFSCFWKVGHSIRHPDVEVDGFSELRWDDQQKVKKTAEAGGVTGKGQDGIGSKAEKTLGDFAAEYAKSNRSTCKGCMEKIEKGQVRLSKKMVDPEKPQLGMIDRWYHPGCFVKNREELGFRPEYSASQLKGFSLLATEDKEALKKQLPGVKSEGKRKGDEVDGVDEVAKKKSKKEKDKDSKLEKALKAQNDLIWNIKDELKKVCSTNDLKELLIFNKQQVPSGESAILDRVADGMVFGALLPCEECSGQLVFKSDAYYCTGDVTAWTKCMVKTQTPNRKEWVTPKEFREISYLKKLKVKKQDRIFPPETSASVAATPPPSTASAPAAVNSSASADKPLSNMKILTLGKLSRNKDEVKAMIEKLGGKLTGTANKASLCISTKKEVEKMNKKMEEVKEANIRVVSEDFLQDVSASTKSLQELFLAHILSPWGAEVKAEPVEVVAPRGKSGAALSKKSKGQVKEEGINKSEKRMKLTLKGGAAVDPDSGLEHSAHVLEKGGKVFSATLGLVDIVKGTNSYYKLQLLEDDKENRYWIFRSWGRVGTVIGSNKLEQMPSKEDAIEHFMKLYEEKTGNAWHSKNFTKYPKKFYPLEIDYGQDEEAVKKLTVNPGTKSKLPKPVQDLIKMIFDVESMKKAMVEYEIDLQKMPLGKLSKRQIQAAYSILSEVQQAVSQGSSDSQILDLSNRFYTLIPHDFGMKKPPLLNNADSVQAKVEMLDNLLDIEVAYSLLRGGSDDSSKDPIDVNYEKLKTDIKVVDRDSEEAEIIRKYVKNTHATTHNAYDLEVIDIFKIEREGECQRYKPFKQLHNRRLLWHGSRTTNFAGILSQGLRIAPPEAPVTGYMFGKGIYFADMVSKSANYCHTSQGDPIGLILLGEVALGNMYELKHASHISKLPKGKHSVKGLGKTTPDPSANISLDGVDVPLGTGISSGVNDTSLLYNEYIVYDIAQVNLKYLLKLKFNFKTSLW
Source text: PARP1 biochemical assay was purchased as a kit from Trevigen (cat.#4676-096-K) and used per manufacturers recommendations.

PARP2 = PARP2 (Homo sapiens (Human), UniProt Q9UGN5); assay: PARP2 biochemical assay (BPS kit)
Chain of PARP2 (Q9UGN5 whole entry): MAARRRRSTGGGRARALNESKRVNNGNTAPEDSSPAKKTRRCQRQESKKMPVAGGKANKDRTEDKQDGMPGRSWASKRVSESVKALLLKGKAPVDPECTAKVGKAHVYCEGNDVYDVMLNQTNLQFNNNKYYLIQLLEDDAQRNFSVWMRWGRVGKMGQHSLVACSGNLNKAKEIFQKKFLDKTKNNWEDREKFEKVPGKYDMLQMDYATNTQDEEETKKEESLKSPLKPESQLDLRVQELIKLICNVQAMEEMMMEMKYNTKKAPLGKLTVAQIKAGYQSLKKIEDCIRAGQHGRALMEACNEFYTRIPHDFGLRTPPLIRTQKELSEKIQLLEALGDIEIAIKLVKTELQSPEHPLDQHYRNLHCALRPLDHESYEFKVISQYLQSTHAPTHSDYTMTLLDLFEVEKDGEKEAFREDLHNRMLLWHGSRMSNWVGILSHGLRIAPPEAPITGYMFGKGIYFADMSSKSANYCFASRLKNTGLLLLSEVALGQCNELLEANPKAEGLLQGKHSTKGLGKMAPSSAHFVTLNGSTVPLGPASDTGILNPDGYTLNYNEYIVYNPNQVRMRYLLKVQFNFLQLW

[4] = tested on: total β-catenin in SW480 colorectal cells; assay: Total β-catenin MSD 96-well plate assay for SW480 cells; settings: Homo sapiens, SW480, read-out: SW480-Total beta-catenin (TBC) IC50 IP
[5] = tested on: 8×TCF promoter-driven Firefly luciferase (Wnt reporter) in DLD-1 colorectal cells; assay: DLD-1-STF assay, constitutively activated Wnt pathway reporter; assay type: cell-based; settings: Homo sapiens
Method: DLD-1 colorectal cells engineered with an 8×TCF promoter-driven Firefly (FF) luciferase gene (Wnt reporter) along with an EF1a promoter-driven Renilla (RN) luciferase gene (control reporter) were used to measure the potency of tankyrase compounds in the context of the constitutively activated Wnt pathway due to mutated APC in colorectal cancer cells. The engineered DLD-1 cells were plated (45 μL) at a density of 10,000 cells/well in black, clear-bottom, 96-well View plates (PerkinElmer) in normal growth medium (RPMI with 10% FBS with no antibiotics). Tankyrase inhibitors (5 μL) were transferred to cells from a three-fold serially diluted compound plate. A 10-point dilution series was tested starting at a concentration (10 μM final concentration in assay). Column 6 contained only DMSO and served as the “HI” control. A potent Tankyrase inhibitor was used at a final concentration of 10 uM in column 12 which served as the “LO” control. […] The Dual-Glo Reagents (Promega) were added as directed by manufacturer to assay the FF and RN luciferase activity. Luciferase activity was measures using the EnVision multilabel plate reader (PerkinElmer).

[6] = DLD-1, read-out: DLD1-STF-FF/RL*100 IC50

Chain of 6×HIS-tankyrase1 (1091-1325) (O95271 1091-1325): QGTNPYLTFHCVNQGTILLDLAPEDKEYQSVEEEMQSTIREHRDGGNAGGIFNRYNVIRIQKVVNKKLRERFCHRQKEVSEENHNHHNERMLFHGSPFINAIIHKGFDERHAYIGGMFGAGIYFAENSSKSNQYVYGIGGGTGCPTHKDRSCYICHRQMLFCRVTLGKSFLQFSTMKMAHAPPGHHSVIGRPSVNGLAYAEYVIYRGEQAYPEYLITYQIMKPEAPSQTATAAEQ

Row | Structure (SMILES) | IC50 [1] [nM] | IC50 [2] [nM] | EC50 ([3]; SW480 cells, 24 hours) [nM] | IC50 (PARP1) [nM] | IC50 (PARP2) [nM] | IC50 [4] [nM] | EC50 ([3]; SW480, 24 h) [nM] | IC50 ([5]; DLD-1 cells, 40 to 48 hours, read-out: DLD1-STF-FF/RL*100 IC50) [nM] | IC50 [5, 6] [nM]
1 | O=C(CCCc1nc2ccccc2c(=O)[nH]1)N[C@H]1CC[C@H](Oc2ccncc2)CC1 [Example 70, 4-(4-oxo-3,4-dihydro-2-quinazolinyl)-N-(trans-4-(4-pyridinyloxyl)cyclohexyl)butanamide] | 5.1 | 0.826 | 191 | 723 | 1810 | 252 |  |  | 
2 | O=C(CCCc1nc2ccccc2c(=O)[nH]1)N[C@H]1CC[C@H](n2c(=O)[nH]c3cc(Cl)ccc32)CC1 [Example 74, N-((1r,4r)-4-(5-chloro-2-oxo-2,3-dihydro-1H-benzo[d]imidazol-1-yl)cyclohexyl)-4-(4-oxo-3,4-dihydroquinazolin-2-yl)butanamide trifluoroacetic acid] |  |  |  |  |  | 6.62 | 5.34 | 1.59 | 
3 | O=C(CCCc1nc2ccccc2c(=O)[nH]1)N[C@H]1CC[C@H](Oc2ccc(F)cc2)CC1 [Example 77, N-(trans-4-(4-fluorophenoxy)cyclohexyl)-4-(4-oxo-3,4-dihydro-2-quinazolinyl)butanamide] | 4.37 | 0.601 | 601 | 1710 | 1820 | 119 |  |  | 
4 | N#Cc1ccc(O[C@H]2CC[C@H](NC(=O)CCCc3nc4ccccc4c(=O)[nH]3)CC2)cc1 [Example 78, N-(trans-4-(4-cyanophenoxy)cyclohexyl)-4-(4-oxo-3,4-dihydro-2-quinazolinyl)butanamide] | 2.23 | 0.434 | 49.2 | 558 | 246 | 7.14 |  |  | 
5 | O=C(CCCc1nc2ccccc2c(=O)[nH]1)N[C@H]1CC[C@H](Oc2ccc(Cl)cc2)CC1 [Example 79, N-(trans-4-(4-chlorophenoxy)cyclohexyl)-4-(4-oxo-3,4-dihydro-2-quinazolinyl)butanamide] | 2.85 | 0.614 | 192 | 2550 | 292 | 42.3 |  |  | 
6 | O=C(CCSc1nc2ccccc2c(=O)[nH]1)N1CCC(c2nnc(-c3ccccc3)o2)CC1 [Example 83, 2-((3-oxo-3-(4-(5-phenyl-1,3,4-oxadiazol-2-yl)piperidin-1-yl)propyl)thio)quinazolin-4(3H)-one] | 31.4 | 12.5 | 2680 | 1510 | 345 | 726 |  |  | 
7 | O=C(CCc1nc2ccccc2c(=O)[nH]1)N[C@H]1CC[C@H](n2c(=O)[nH]c3cc(Cl)ccc32)CC1 [Example 85, N-((1r,4r)-4-(5-chloro-2-oxo-2,3-dihydro-1H-benzo[d]imidazol-1-yl)cyclohexyl)-3-(4-oxo-3,4-dihydroquinazolin-2-yl)propanamide] | 0.524 | 0.227 | 59.7 | > 85000 | 470 | 14.1 |  |  | 
8 | O=C(CSc1nc2ccccc2c(=O)[nH]1)N1CCC(c2nnc(-c3ccccc3)o2)CC1 [Example 89, 2-((2-oxo-2-(4-(5-phenyl-1,3,4-oxadiazol-2-yl)piperidin-1-yl)ethyl)thio)quinazolin-4(3H)-one] | 16.6 | 6.33 | 2330 | 1390 | 350 | 1710 |  |  | 
9 | Nc1cc(=O)[nH]c(SCCC(=O)N[C@H]2CC[C@H](c3nnc(-c4ccccc4)o3)CC2)n1 [Example 91, 3-((4-amino-6-oxo-1,6-dihydro-2-pyrimidinyl)sulfanyl)-N-(trans-4-(5-phenyl-1,3,4-oxadiazol-2-yl)cyclohexyl)propanamide] | 3.97 | 8.78 | 1020 | > 85000 | > 170000 | 1680 |  |  | 
10 | O=C(CCSCc1nc2ccccc2c(=O)[nH]1)N[C@H]1CC[C@H](c2nnc(-c3ccccc3)o2)CC1 [Example 92, 3-(((4-oxo-3,4-dihydro-2-quinazolinyl)methyl)sulfanyl)-N-(trans-4-(5-phenyl-1,3,4-oxadiazol-2-yl)cyclohexyl)propanamide] | 15.8 | 4.44 | 287 | 2270 | 2420 | 145 |  |  | 
11 | O=C(CCSCc1nc2ccccc2c(=O)[nH]1)N1CCC(c2nnc(-c3ccc(F)cc3)o2)CC1 [Example 93, 2-(((3-(4-(5-(4-fluorophenyl)-1,3,4-oxadiazol-2-yl)-1-piperidinyl)-3-oxopropyl)sulfanyl)methyl)-4(3H)-quinazolinone] | 95.2 | 85.1 | 1230 | 8290 | > 170000 | 1200 |  |  | 
12 | O=C(CCSc1nc2ccccc2c(=O)[nH]1)N[C@H]1CC[C@H](c2nnc(-c3ccccc3)o2)CC1 [Example 97, 3-((4-oxo-3,4-dihydroquinazolin-2-yl)thio)-N-(trans-4-(5-phenyl-1,3,4-oxadiazol-2-yl)cyclohexyl)propanamide] |  |  | 3.88 |  | 2450 | 3.69 |  |  | 0.608
13 | O=C(CCc1nc2ccccc2c(=O)[nH]1)N1CCC(c2nnc(-c3ccccc3)o2)CC1 [Example 98, 2-(3-oxo-3-(4-(5-phenyl-1,3,4-oxadiazol-2-yl)piperidin-1-yl)propyl)quinazolin-4(3H)-one] | 161 | 199 | 3990 | 3460 | 806 | 2730 |  |  | 
14 | O=C(CSc1nc2ccccc2c(=O)[nH]1)N[C@H]1CC[C@H](n2c(=O)[nH]c3ccc(Cl)cc32)CC1 [Example 102, N-((1r,4r)-4-(6-chloro-2-oxo-2,3-dihydro-1H-benzo[d]imidazol-1-yl)cyclohexyl)-2-((4-oxo-3,4-dihydroquinazolin-2-yl)thio)acetamide] | 0.118 | 0.458 | 38.1 | > 85000 | 1650 | 55.4 |  |  | 
15 | N#Cc1ccc2c(c1)[nH]c(=O)n2[C@H]1CC[C@H](NC(=O)CCSc2nc3ccccc3c(=O)[nH]2)CC1 [Example 104, N-((1r,4r)-4-(5-cyano-2-oxo-2,3-dihydro-1H-benzo[d]imidazol-1-yl)cyclohexyl)-3-((4-oxo-3,4-dihydroquinazolin-2-yl)thio)propanamide] | 0.045 | 1.31 | 9.45 | 1350 | 1180 | 8.42 |  |  | 
16 | N#Cc1ccc(O[C@H]2CC[C@H](NC(=O)CCSc3nc4ccccc4c(=O)[nH]3)CC2)cc1 [Example 106, N-(trans-4-(4-cyanophenoxy)cyclohexyl)-3-((4-oxo-3,4-dihydroquinazolin-2-yl)thio) propanamide] |  |  | 4.01 |  | 1760 | 1.9 |  |  | 0.275
17 | O=C(CCCSc1nc2ccccc2c(=O)[nH]1)N1CCC(c2nnc(-c3ccccc3)o2)CC1 [Example 111, 2-((4-oxo-4-(4-(5-phenyl-1,3,4-oxadiazol-2-yl)piperidin-1-yl)butyl)thio)quinazolin-4(3H)-one] | 88.4 | 29.5 | 2950 | 7630 | 4670 | > 10000 |  |  | 
18 | N#Cc1ccc(O[C@H]2CC[C@H](NC(=O)CCSc3nc4c(c(=O)[nH]3)CCCC4)CC2)cc1 [Example 116, N-(trans-4-(4-cyanophenoxy)cyclohexyl)-3-((4-oxo-3,4,5,6,7,8-hexahydroquinazolin-2-yl)thio)propanamide] | 0.167 | 3.13 | 10.7 | 2500 | 319 | 3.79 |  |  | 
19 | COc1ccc(-c2nnc([C@H]3CC[C@H](NC(=O)CCSc4nc5ccccc5c(=O)[nH]4)CC3)o2)cc1 [Example 121, N-((1r,4r)-4-(5-(4-methoxyphenyl)-1,3,4-oxadiazol-2-yl)cyclohexyl)-3-((4-oxo-3,4-dihydroquinazolin-2-yl)thio)propanamide] | 0.0724 | 18.1 | 1.98 | 4430 | 6780 | 1.1 |  |  | 
20 | O=C(CCSc1nc2ccccc2c(=O)[nH]1)N[C@H]1CC[C@H](c2nnc(-c3ccc(F)c(Cl)c3)o2)CC1 [Example 122, N-((1r,4r)-4-(5-(3-chloro-4-fluorophenyl)-1,3,4-oxadiazol-2-yl)cyclohexyl)-3-((4-oxo-3,4-dihydroquinazolin-2-yl)thio)propanamide] | 0.153 | 1.38 | 4.47 | > 9440 | 7690 | 3.04 |  |  | 
